PubChem BioAssay AID248 (DTP/NCI, 2004)
Values joined by “and” are separate entries in the source; they are usually repeats but may differ in a detail not shown here. Equal values may be shown once. Toxic doses and inconclusive results are not listed. Cut-off read from the data, not from the text of the source: active = T/C of 150% or more; inactive = T/C below 125%.

System: L1210 leukemia ip in BDF1 mice, survival T/C
Assay: NCI In Vivo Anticancer Drug Screen. Data for tumor model L1210 Leukemia (intraperitoneal) in B6D2F1 (BDF1) mice
Conditions: endpoint: mean survival time, higher = longer survival
How it was run: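 Survival endpoint. Drug-treated group vs vehicle group, expressed as T divided by C. Tumor passaged by transplantation.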

[1] = dose: 100.0 mg/kg/injection, schedule: Q01DX001 (ip), vehicle: saline
[2] = dose: 200.0 mg/kg/injection, schedule: Q01DX001 (ip), vehicle: saline
[3] = dose: 400.0 mg/kg/injection, schedule: Q01DX001 (ip), vehicle: saline
[4] = dose: 100.0 mg/kg/injection, schedule: Q04DX003 (ip), vehicle: saline
[5] = dose: 200.0 mg/kg/injection, schedule: Q04DX003 (ip), vehicle: saline
[6] = dose: 400.0 mg/kg/injection, schedule: Q04DX003 (ip), vehicle: saline
[7] = dose: 100.0 mg/kg/injection, schedule: Q01DX009 (ip), vehicle: Klucel (hydroxypropylcellulose) (HPC)
[8] = dose: 100.0 mg/kg/injection, schedule: Q04DX003 (ip), vehicle: Klucel (hydroxypropylcellulose) (HPC)
[9] = dose: 200.0 mg/kg/injection, schedule: Q01DX009 (ip), vehicle: Klucel (hydroxypropylcellulose) (HPC)
[10] = dose: 200.0 mg/kg/injection, schedule: Q04DX003 (ip), vehicle: Klucel (hydroxypropylcellulose) (HPC)
[11] = dose: 400.0 mg/kg/injection, schedule: Q01DX009 (ip), vehicle: Klucel (hydroxypropylcellulose) (HPC)
[12] = dose: 400.0 mg/kg/injection, schedule: Q04DX003 (ip), vehicle: Klucel (hydroxypropylcellulose) (HPC)

Measured: T/C

COc1ccc(OC)c(NC(=O)Nc2ccc(F)cc2)c1
inactive: dose: 12.5 mg/kg/injection, schedule: Q01DX001 (ip), vehicle: carboxymethylcellulose (CMC) 98 % of control | dose: 12.5 mg/kg/injection, schedule: Q01DX009 (ip), vehicle: carboxymethylcellulose (CMC) 92 % of control and 94 % of control | dose: 12.5 mg/kg/injection, schedule: Q04DX002 (ip), vehicle: carboxymethylcellulose (CMC) 110 % of control | dose: 12.5 mg/kg/injection, schedule: Q04DX003 (ip), vehicle: carboxymethylcellulose (CMC) 95 % of control | dose: 25.0 mg/kg/injection, schedule: Q01DX001 (ip), vehicle: carboxymethylcellulose (CMC) 103 % of control | dose: 25.0 mg/kg/injection, schedule: Q01DX009 (ip), vehicle: carboxymethylcellulose (CMC) 95 % of control and 99 % of control | dose: 25.0 mg/kg/injection, schedule: Q04DX002 (ip), vehicle: carboxymethylcellulose (CMC) 98 % of control and 100 % of control | dose: 25.0 mg/kg/injection, schedule: Q04DX003 (ip), vehicle: carboxymethylcellulose (CMC) 91 % of control | dose: 50.0 mg/kg/injection, schedule: Q01DX001 (ip), vehicle: carboxymethylcellulose (CMC) 95 % of control | dose: 50.0 mg/kg/injection, schedule: Q01DX009 (ip), vehicle: carboxymethylcellulose (CMC) 92 % of control and 89 % of control | dose: 50.0 mg/kg/injection, schedule: Q04DX002 (ip), vehicle: carboxymethylcellulose (CMC) 97 % of control | dose: 50.0 mg/kg/injection, schedule: Q04DX003 (ip), vehicle: carboxymethylcellulose (CMC) 93 % of control

COC(=O)CC(c1ccc(Cl)cc1)N1CCCCC1 (stereo not given)
inactive: [1] 98 % of control | [2] 102 % of control | [3] 96 % of control

[Br][La]([Br])[Br]
inactive: [4] 89 % of control | [5] 91 % of control | [6] 91 % of control

CSc1ncc(C(=O)O)c(=O)[nH]1
inactive: dose: 50.0 mg/kg/injection, schedule: Q01DX009 (ip), vehicle: Klucel (hydroxypropylcellulose) (HPC) 95 % of control | [7] 88 % of control and 90 % of control | [8] 104 % of control | [9] 94 % of control | [10] 101 % of control | [11] 88 % of control | [12] 102 % of control

Cc1noc(/N=C/c2ccccc2)c1C
inactive: dose: 100.0 mg/kg/injection, schedule: Q01DX009 (ip), vehicle: other 95 % of control | [4] 103 % of control | dose: 200.0 mg/kg/injection, schedule: Q01DX009 (ip), vehicle: other 102 % of control | [5] 103 % of control | dose: 400.0 mg/kg/injection, schedule: Q01DX009 (ip), vehicle: other 107 % of control | [6] 96 % of control

Cc1ccc(C(=O)C(=O)c2ccccc2)c(C)c1
inactive: [1] 107 % of control | [2] 102 % of control | [3] 96 % of control

CC(=O)CC(=O)Nc1ccc(Cl)cc1Cl
inactive: [7] 100 % of control | [8] 98 % of control | [9] 102 % of control | [10] 91 % of control | [11] 98 % of control | [12] 93 % of control

N#Cc1ccc(Br)cc1[N+](=O)[O-]
inactive: dose: 6.25 mg/kg/injection, schedule: Q01DX009 (ip), vehicle: Klucel (hydroxypropylcellulose) (HPC) 103 % of control | [8] 89 % of control | [10] 86 % of control

CC(=O)Nc1ccc(/C=N/N=C(N)N)cc1
inactive: dose: 63.0 mg/kg/injection, schedule: Q01DX Z (ip), vehicle: carboxymethylcellulose (CMC) 88 % of control | dose: 125.0 mg/kg/injection, schedule: Q01DX Z (ip), vehicle: carboxymethylcellulose (CMC) 100 % of control

CC(NP1(=O)OCC(C)(N)CO1)c1ccccc1 (stereo not given)
inactive: dose: 50.0 mg/kg/injection, schedule: Q01DX001 (ip), vehicle: saline 108 % of control | [1] 102 % of control | [2] 106 % of control | [3] 93 % of control

C=C(Cl)CNCC
inactive: dose: 12.5 mg/kg/injection, schedule: Q01DX009 (ip), vehicle: saline with Tween-80 91 % of control | dose: 25.0 mg/kg/injection, schedule: Q01DX009 (ip), vehicle: saline with Tween-80 97 % of control | dose: 50.0 mg/kg/injection, schedule: Q01DX009 (ip), vehicle: saline with Tween-80 119 % of control

COc1cc(O)c(OC(C)=O)cc1OC
inactive: dose: 100.0 mg/kg/injection, schedule: Q01DX001 (ip), vehicle: gum acacia 97 % of control | dose: 200.0 mg/kg/injection, schedule: Q01DX001 (ip), vehicle: gum acacia 97 % of control | dose: 400.0 mg/kg/injection, schedule: Q01DX001 (ip), vehicle: gum acacia 117 % of control

NCC1OC(OC2C(N)CC(N)C(O)C2OC2OC(CO)C(O)C2O)C(N)C(O)C1O (stereo not given)
inactive: dose: 75.0 mg/kg/injection, schedule: Q01DX001 (ip), vehicle: saline 92 % of control | dose: 75.0 mg/kg/injection, schedule: Q01DX009 (ip), vehicle: saline 98 % of control | [1] 100 % of control | [4] 100 % of control | dose: 150.0 mg/kg/injection, schedule: Q01DX001 (ip), vehicle: saline 97 % of control | dose: 150.0 mg/kg/injection, schedule: Q01DX009 (ip), vehicle: saline 96 % of control | [2] 100 % of control | [5] 95 % of control | dose: 300.0 mg/kg/injection, schedule: Q01DX001 (ip), vehicle: saline 93 % of control | dose: 300.0 mg/kg/injection, schedule: Q01DX009 (ip), vehicle: saline 98 % of control | [3] 100 % of control | [6] 95 % of control

CNC(=O)NC1ON=C(c2ccccc2)C1C(=O)NC (stereo not given)
inactive: dose: 100.0 mg/kg/injection, schedule: Q01DX001 (ip), vehicle: saline with Tween-80 98 % of control | dose: 200.0 mg/kg/injection, schedule: Q01DX001 (ip), vehicle: saline with Tween-80 95 % of control

S=C1N(C2CCCCC2)CCN1C1CCCCC1
inactive: dose: 100.0 mg/kg/injection, schedule: Q04DX002 (ip), vehicle: Klucel (hydroxypropylcellulose) (HPC) 97 % of control
